Assay results taken from patent US9937139B2 (priority 2014, dated 2018).

Columns and labels:
[1] = system: LLCPK cells conditionally expressing hLAT1; assay: LAT1-specific in vitro cytotoxicity, modified clonigenic assay; assay type: cell-based; details: 3 μM test compound for 30 min, then 7-10 days proliferation; induced (LAT1+) vs non-induced
B16 melanoma cells = assay: In vivo tumor growth suppression, B16 efficacy model; details: C57BL/6 mice, s.c. B16 melanoma, IP daily for 12 days; test compound 5 mg/kg and 10 mg/kg (dose of tabulated value not stated), melphalan 2.5 mg/kg

Compound | percent surviving cells in cells expressing LAT1 compared to cells not expressing LAT1 [1] | Tumor Growth (% Control) 5 days post-dosing (B16 melanoma cells) | Tumor Growth (% Control) End of dosing (B16 melanoma cells)
Cc1c(N(CCCl)CCCl)cccc1C(C)(CN)CC(=O)O (centres unmarked) [Example 6, 4-Amino-3-[3-[bis(2-chloroethyl)amino]-2-methyl-phenyl]-3-methyl-butanoic acid] | about the same | – | –
N[C@@H](Cc1ccc(N(CCCl)CCCl)cc1)C(=O)O [Melphalan, melphalan, reference compound] | about the same | 56 % Control | 33 % Control
Cc1ccc(N(CCCl)CCCl)cc1C(C)(CN)CC(=O)O (centres unmarked) [Example 5, 4-Amino-3-[5-[bis(2-chloroethyl)amino]-2-methyl-phenyl]-3-methyl-butanoic acid] | – | 14 % Control | 13 % Control
Cc1cc(N(CCCl)CCCl)ccc1C(C)(CN)CC(=O)O (centres unmarked) [Example 7, 4-Amino-3-[4-[bis(2-chloroethyl)amino]-2-methyl-phenyl]-3-methyl-butanoic acid] | – | 50 % Control | 38 % Control
